Data reported in ChEMBL document CHEMBL1139293 (Bioorg Med Chem Lett, 2009).
The source made the active and inactive calls. The rule behind the calls is not given here.

Key:
[1] = molecular target: Neuronal acetylcholine receptor subunit alpha-7 (Homo sapiens, UniProt P36544); assay: Displacement of [3H]MLA from alpha7 nAChR/5HT3A receptor expressed in HEK293 cells; format: cell-based
[2] = molecular target: T1, Neuronal acetylcholine receptor; alpha3/beta4 (Homo sapiens, UniProt P30926+P32297); assay: Agonist activity at alpha3beta4 nAChR expressed in HEK293 cells by FLIPR membrane potential assay; format: functional, cell-based
[3] = molecular target: T1, Neuronal acetylcholine receptor; alpha3/beta4; assay: Agonist activity at alpha3beta4 nAChR expressed in HEK293 cells at 1 mM by FLIPR membrane potential assay; format: functional, cell-based
[4] = molecular target: T1, Neuronal acetylcholine receptor; alpha3/beta4; assay: Agonist activity at alpha3beta4 nAChR expressed in HEK293 cells at 300 uM by FLIPR membrane potential assay; format: functional, cell-based

T1 sequence (P30926 whole entry): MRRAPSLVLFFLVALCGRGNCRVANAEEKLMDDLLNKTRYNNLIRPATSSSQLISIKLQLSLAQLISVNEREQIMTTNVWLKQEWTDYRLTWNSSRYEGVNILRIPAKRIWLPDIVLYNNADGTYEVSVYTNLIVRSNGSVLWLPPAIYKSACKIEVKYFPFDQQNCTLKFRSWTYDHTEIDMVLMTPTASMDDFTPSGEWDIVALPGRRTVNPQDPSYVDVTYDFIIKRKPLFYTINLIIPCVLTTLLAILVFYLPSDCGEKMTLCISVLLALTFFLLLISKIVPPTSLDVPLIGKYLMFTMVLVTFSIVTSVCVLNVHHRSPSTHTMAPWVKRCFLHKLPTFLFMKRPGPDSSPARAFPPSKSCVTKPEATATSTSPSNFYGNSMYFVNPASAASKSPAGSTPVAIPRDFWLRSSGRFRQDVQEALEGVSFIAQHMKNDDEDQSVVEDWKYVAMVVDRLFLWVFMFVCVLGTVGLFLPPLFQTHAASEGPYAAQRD
T1 sequence (P32297 whole entry): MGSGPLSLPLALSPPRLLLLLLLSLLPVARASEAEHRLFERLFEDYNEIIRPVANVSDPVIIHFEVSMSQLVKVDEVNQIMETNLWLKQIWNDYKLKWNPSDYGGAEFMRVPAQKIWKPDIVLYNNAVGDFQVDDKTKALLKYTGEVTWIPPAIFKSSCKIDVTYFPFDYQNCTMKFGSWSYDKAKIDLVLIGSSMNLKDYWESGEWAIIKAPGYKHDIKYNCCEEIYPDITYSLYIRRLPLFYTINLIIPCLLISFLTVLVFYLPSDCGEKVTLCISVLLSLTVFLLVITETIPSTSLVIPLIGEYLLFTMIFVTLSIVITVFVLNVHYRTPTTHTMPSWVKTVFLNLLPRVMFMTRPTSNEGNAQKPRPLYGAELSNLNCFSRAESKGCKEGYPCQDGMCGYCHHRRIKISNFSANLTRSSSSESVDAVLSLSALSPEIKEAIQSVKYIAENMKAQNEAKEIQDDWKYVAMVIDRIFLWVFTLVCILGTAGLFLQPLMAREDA
Chain of Neuronal acetylcholine receptor subunit alpha-7 (P36544 23-502 limits assumed): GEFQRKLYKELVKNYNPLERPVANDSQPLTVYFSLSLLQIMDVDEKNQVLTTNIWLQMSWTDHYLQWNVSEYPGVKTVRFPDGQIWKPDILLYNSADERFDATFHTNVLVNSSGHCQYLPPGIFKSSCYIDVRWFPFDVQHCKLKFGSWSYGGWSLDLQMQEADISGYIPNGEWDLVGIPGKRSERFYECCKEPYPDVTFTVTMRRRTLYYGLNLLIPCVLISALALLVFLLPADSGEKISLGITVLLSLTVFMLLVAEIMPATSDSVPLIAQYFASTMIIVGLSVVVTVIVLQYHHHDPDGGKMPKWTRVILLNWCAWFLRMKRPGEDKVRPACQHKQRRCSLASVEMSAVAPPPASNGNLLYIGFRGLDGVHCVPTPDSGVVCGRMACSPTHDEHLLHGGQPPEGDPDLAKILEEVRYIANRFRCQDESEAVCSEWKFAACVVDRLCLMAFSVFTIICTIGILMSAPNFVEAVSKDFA

| Structure (SMILES) | Ki [1] | pKi [1] | EC50 ([2]; read-out: EC50) | Activity [3] | Activity [4] | EC50 ([2]; read-out: pEC50 (converted)) |
| --- | --- | --- | --- | --- | --- | --- |
| CC(CCOC(=O)N(C)Cc1ccccc1)N(C)C (stereo not given) | 1 mM | 3 | 6.7 µM |  |  |  |
| CN(C)C(=O)OCCC(CO)N(C)C (stereo not given) | > 1 mM |  | > 3000 µM | Active | Active |  |
| CC(CCOC(=O)N(C)c1ccc(Cl)cc1)N(C)C (stereo not given) | 1 mM | 3 | 28 µM |  |  | 31.6 µM |
| CC(CCOC(N)=O)N(C)C (stereo not given) | > 1 mM |  | 57 µM |  |  |  |
| CC(CCOC(=S)N(C)C)N(C)C (stereo not given) | > 1 mM |  | 53 µM |  |  |  |
| CCCNC(=O)OCCC(C)N(C)C (stereo not given) | > 1 mM |  | 95 µM |  |  |  |
| CN(C)C(=O)OCCC(c1ccccc1)N(C)C (stereo not given) | 1 mM | 3 | > 1000 µM |  | Active | 1000 µM |
| CC(CCOC(=O)NCCCc1ccccc1)N(C)C (stereo not given) | > 1 mM |  | > 1000 µM |  | Active | 1000 µM |
| CC(CCOC(=O)N(C)c1ccccc1)N(C)C (stereo not given) | 1 mM | 3 | 51 µM |  |  |  |
| CC(CCNC(=O)Nc1ccccc1)N(C)C (stereo not given) | > 1 mM |  | > 3000 µM | Active |  |  |
| CC(CCNC(=O)N(C)C)N(C)C (stereo not given) | > 1 mM |  | > 3000 µM | Active |  |  |
| CC(CCOC(=O)NCCO)N(C)C (stereo not given) | > 1 mM |  | 300 µM |  |  |  |
| CC(CCCC(=O)N(C)C)N(C)C (stereo not given) | > 1 mM |  | 1000 µM |  | Active |  |
| CCNC(=O)OCCC(C)N(C)C (stereo not given) | > 1 mM |  | 55 µM |  |  |  |
| CN(C)C(=O)OCCC(c1ccsc1)N(C)C (stereo not given) | 1 mM | 3 | > 1000 µM |  | Active | 1000 µM |
| CC(CCOC(=O)N(C)c1ccc(C#N)cc1)N(C)C (stereo not given) | 1 mM | 3 | > 1000 µM |  | Active | 1000 µM |
| CC(CCSC(=O)N(C)C)N(C)C (stereo not given) | > 1 mM |  | 430 µM |  |  |  |
| CC(C/C=C/C(=O)N(C)C)N(C)C (stereo not given) | > 1 mM |  | 91 µM |  |  |  |
| CNC(=O)/C=C/CC(C)N(C)C (stereo not given) | > 1 mM |  | 150 µM |  |  |  |
| CC(CCOC(=O)N(C)CCO)N(C)C (stereo not given) | > 1 mM |  | 160 µM |  |  |  |
